Test [1] concerns the target T1, Lipoprotein lipase (Homo sapiens) (UniProt P06858).
T1 sequence (whole entry): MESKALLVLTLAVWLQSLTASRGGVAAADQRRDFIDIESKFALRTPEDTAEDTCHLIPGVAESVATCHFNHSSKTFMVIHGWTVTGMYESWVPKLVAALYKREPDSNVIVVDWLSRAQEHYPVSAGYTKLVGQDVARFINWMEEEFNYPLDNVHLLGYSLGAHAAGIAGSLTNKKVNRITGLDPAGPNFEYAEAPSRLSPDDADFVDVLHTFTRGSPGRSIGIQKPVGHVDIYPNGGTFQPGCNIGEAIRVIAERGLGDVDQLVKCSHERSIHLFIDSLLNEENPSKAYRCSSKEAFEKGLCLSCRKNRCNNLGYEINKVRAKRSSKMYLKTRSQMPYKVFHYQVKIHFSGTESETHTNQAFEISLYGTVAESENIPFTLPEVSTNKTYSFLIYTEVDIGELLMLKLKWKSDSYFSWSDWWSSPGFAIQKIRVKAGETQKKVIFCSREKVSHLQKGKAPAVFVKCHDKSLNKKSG
Put plainly: Agonist activity at lipoprotein lipase (unknown origin) using p-nitrophenylbutyrate as substrate by spectrophotometric analysis relative to control. Details: concentration or dose not given beside the values.

Test [2] has as its target T1, Lipoprotein lipase (Homo sapiens). Put plainly: Agonist activity at lipoprotein lipase (unknown origin) using p-nitrophenylbutyrate as substrate by spectrophotometric analysis relative to NO-1886.
Test [3] has the same target. Put plainly: Activation of lipoprotein lipase (unknown origin) assessed as reversal of ANGPTL4-mediated enzyme inhibition treated with ANGPTL4 for 30 mins followed by substrate addition measured after 20 mins by spectrophotometric analysis.
Test [4] shares this target. As to the kind of experiment: Agonist activity at lipoprotein lipase (unknown origin) using p-nitrophenylbutyrate as substrate at 40 uM by spectrophotometric analysis.
Test [5] has the same target. As to the kind of experiment: Agonist activity at lipoprotein lipase (unknown origin) using p-nitrophenylbutyrate as substrate by spectrophotometric analysis.

The source made the active and inactive calls. The rule behind the calls is not given here.

From ChEMBL document CHEMBL3259798, “A novel Lipoprotein lipase (LPL) agonist rescues the enzyme from inhibition by angiopoietin-like 4 (ANGPTL4)” (Bioorg Med Chem Lett, 2014) come the findings set out here.

Turning to `Cc1cn(CCCNC(=O)C2(C)CC2(Br)Br)cn1` (configuration not stated), the Activity in test [1] came to 113%.
In turn, `CC1(C(=O)NCCCn2cnc(Cl)c2)CC1(Br)Br` (configuration not stated) registered an Activity in test [1] of 122%.
Still for that read-out and setting: the same measure for `CC1(C(=O)NCCCN2CCOCC2)CC1(Br)Br` (configuration not stated): 130%.
Consider `CC1(C)CC1(C(=O)NCCCn1ccnc1)c1ccc(F)cc1` (configuration not stated), for which, in test [2], the fold change (FC) turned out to be 2. The Activity entry in test [3] is “Dose-dependent effect”; in test [1] it was 342%.
As to `CCOP(=O)(Cc1ccc(C(=O)Nc2ccc(Br)cc2C#N)cc1)OCC`, the outcome in test [3] was inactive. Also, the Activity in test [1] worked out at 170%.
For `CC1(C(=O)NCCCn2ccnc2)CC1(Cl)Cl` (configuration not stated), the outcome in test [4] was Active. For the same compound, the Activity result is “Dose-dependent effect” in test [5], “Dose-dependent effect” in test [3] and 196% in test [1].
